We go through three compounds from US10870647B2, “Imidazopyridine derivative, method for preparing same, and pharmaceutical composition containing same as active ingredient for preventing or treating cancer” (DAEGU-GYEONGBUK MEDICAL INNOVATION FOUNDATION, priority 2016, dated 2020).

Holding throughout (test): Kinase selectivity, scanMAX Kinase assay panel (DiscoverX), % control at 1 uM
Assay type in all cases: binding

The target in test [1] is T1, scanMAX Kinase assay panel (Homo sapiens, UniProt P00533, L858R).
T1 construct: purchased DiscoverX
T1 sequence (P00533 25-1210 L858R): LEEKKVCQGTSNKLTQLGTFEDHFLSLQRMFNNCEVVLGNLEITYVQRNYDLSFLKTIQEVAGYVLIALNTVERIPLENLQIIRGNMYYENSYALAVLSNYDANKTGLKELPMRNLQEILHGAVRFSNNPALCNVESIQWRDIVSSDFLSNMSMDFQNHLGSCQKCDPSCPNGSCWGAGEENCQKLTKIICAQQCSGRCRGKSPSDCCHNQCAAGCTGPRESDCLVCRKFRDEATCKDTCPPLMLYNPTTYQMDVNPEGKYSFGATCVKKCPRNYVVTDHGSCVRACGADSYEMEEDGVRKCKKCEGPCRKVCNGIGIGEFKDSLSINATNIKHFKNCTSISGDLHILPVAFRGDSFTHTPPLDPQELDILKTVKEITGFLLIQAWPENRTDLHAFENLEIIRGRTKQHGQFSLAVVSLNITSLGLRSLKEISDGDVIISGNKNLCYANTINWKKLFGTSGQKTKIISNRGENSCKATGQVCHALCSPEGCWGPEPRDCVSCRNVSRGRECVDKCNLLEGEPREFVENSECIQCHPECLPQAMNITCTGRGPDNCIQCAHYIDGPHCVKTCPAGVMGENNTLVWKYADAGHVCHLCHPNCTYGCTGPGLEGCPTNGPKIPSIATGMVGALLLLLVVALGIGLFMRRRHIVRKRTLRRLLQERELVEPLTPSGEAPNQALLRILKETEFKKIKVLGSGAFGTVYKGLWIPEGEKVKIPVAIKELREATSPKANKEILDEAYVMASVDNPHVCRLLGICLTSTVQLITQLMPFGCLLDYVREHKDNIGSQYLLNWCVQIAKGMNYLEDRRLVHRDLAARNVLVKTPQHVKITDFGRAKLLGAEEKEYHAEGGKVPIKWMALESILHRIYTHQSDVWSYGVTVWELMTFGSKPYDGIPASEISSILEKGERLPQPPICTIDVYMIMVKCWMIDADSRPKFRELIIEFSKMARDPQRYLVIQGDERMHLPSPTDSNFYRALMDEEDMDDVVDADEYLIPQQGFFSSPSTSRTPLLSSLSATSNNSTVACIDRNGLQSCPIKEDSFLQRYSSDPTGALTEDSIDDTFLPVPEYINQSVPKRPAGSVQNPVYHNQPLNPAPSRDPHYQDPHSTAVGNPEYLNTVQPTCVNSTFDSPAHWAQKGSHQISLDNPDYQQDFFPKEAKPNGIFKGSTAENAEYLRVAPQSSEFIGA
The note with it: EGFR (L858R); 1 uM; read-out: Percent Control (%). Summed up:
(§1)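 Compounds were tested at 1 uM in DMSO against each enzyme in the panel. Percent control was calculated as (compound − positive control)/(negative control − positive control) × 100, and a compound was scored active on a kinase when this value fell below 35.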

The target of test [2] is T2, scanMAX Kinase assay panel (Homo sapiens, UniProt P00533, L861Q).
T2 construct: purchased DiscoverX
T2 sequence (P00533 25-1210 L861Q): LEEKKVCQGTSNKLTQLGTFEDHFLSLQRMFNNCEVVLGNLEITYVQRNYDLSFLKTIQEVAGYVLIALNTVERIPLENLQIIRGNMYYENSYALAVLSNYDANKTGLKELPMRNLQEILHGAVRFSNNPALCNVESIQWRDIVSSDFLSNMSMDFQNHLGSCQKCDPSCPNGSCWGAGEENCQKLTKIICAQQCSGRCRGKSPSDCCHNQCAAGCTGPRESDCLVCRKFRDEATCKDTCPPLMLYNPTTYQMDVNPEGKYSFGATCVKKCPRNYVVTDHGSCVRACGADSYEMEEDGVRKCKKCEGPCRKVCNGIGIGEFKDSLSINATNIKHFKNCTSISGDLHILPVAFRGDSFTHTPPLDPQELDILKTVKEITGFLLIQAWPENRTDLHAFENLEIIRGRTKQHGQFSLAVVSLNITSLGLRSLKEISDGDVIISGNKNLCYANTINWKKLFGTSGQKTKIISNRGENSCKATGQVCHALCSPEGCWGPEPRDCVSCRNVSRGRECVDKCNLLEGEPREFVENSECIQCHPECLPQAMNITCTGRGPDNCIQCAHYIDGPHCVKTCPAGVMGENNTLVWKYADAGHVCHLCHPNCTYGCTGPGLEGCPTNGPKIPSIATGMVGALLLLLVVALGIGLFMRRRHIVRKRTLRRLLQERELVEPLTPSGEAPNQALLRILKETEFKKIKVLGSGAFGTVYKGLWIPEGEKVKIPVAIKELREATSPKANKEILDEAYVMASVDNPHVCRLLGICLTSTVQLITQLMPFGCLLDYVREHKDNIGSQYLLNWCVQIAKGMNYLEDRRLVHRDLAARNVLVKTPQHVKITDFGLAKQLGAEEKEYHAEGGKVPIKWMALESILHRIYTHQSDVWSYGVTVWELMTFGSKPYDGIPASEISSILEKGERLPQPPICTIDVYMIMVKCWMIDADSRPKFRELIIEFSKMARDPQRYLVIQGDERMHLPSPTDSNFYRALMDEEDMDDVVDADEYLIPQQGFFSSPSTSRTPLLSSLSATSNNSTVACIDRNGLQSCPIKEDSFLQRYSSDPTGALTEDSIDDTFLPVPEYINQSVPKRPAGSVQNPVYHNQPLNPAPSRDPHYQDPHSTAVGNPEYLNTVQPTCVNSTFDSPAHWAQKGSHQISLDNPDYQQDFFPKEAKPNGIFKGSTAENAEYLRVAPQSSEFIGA
Conditions: EGFR (L861Q); 1 uM; read-out: Percent Control (%). The method, boiled down:
as §1

The target of test [3] is T3, scanMAX Kinase assay panel (Homo sapiens, UniProt P49841).
T3 construct: purchased DiscoverX
T3 sequence (P49841 whole entry): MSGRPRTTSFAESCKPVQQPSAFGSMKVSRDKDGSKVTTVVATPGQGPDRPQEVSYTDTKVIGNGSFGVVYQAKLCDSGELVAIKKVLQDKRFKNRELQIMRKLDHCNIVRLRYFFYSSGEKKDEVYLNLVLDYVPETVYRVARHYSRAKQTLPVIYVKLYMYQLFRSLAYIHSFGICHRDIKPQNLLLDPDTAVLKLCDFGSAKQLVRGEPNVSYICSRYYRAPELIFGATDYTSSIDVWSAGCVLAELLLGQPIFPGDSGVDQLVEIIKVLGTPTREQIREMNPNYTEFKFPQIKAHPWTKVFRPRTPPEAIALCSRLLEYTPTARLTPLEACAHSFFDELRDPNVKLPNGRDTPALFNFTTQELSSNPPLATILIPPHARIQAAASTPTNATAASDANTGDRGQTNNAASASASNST
Conditions: GSK3B; 1 uM; read-out: Percent Control (%). The method, boiled down: as §1

Test [4] concerns the target T4, scanMAX Kinase assay panel (Homo sapiens, UniProt Q00532).
T4 construct: purchased DiscoverX
The note with it: CDKL1; 1 uM; read-out: Percent Control (%). The method, boiled down: as §1

In test [5] the target is T5, scanMAX Kinase assay panel (Homo sapiens, UniProt Q13237).
T5 construct: purchased DiscoverX
T5 sequence (Q13237 1-762): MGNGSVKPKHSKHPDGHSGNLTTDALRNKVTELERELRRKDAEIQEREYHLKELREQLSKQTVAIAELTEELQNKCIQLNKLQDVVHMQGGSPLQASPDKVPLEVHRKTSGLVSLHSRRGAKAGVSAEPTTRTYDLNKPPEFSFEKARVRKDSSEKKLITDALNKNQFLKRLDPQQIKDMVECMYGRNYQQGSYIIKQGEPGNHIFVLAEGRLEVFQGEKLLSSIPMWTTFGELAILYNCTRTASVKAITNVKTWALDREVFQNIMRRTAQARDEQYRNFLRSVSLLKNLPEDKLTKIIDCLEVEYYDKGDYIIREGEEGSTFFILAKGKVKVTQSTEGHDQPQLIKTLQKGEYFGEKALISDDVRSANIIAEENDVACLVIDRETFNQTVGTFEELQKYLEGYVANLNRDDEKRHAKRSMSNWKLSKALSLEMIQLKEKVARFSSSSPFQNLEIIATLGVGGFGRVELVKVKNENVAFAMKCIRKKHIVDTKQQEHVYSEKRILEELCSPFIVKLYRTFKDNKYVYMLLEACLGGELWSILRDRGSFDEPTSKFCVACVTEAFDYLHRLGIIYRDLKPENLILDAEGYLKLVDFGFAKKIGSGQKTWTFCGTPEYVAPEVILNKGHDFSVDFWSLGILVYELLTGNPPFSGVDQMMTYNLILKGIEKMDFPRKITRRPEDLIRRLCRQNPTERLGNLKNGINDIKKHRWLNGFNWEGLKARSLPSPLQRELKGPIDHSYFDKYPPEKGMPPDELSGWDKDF
Conditions: PRKG2; 1 uM; read-out: Percent Control (%). Summed up: as §1

Test [6] addresses T6, scanMAX Kinase assay panel (Homo sapiens, UniProt Q56UN5).
T6 construct: purchased DiscoverX
T6 sequence (Q56UN5 1-1328): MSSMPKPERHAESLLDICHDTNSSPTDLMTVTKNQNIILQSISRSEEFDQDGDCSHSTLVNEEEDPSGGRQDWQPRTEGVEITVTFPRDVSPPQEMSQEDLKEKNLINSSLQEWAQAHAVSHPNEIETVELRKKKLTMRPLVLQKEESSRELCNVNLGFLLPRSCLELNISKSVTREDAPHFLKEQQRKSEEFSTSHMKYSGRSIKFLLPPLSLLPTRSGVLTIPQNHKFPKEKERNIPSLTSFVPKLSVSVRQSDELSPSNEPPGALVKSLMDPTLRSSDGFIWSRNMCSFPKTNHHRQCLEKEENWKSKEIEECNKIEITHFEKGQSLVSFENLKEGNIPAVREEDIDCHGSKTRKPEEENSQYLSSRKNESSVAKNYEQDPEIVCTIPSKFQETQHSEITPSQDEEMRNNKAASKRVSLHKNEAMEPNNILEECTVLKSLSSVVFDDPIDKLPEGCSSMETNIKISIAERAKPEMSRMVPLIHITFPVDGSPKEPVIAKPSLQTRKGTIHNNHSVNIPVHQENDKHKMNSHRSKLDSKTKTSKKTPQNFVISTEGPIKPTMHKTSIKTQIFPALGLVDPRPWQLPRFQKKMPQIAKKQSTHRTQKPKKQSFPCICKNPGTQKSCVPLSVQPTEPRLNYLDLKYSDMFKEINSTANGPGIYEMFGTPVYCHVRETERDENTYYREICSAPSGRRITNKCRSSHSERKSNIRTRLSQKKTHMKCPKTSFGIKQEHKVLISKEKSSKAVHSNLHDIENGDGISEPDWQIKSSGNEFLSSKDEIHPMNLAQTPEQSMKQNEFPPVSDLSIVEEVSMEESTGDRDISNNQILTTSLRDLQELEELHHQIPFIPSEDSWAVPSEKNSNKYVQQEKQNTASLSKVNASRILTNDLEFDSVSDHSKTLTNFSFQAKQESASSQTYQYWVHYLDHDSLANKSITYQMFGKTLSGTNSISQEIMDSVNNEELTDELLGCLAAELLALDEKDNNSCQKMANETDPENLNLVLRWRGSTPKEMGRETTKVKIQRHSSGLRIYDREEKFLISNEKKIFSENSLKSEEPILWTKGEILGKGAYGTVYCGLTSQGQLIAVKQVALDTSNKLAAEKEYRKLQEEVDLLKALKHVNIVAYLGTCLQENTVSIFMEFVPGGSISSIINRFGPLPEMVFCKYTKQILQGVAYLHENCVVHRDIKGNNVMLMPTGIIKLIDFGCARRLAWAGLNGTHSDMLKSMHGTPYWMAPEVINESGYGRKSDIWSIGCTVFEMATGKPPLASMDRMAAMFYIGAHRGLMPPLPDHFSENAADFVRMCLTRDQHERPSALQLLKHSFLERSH
The note with it: YSK4; 1 uM; read-out: Percent Control (%). Summed up: as §1

The target of test [7] is T7, scanMAX Kinase assay panel (Homo sapiens, UniProt Q8N568).
T7 construct: purchased DiscoverX
T7 sequence (Q8N568 whole entry): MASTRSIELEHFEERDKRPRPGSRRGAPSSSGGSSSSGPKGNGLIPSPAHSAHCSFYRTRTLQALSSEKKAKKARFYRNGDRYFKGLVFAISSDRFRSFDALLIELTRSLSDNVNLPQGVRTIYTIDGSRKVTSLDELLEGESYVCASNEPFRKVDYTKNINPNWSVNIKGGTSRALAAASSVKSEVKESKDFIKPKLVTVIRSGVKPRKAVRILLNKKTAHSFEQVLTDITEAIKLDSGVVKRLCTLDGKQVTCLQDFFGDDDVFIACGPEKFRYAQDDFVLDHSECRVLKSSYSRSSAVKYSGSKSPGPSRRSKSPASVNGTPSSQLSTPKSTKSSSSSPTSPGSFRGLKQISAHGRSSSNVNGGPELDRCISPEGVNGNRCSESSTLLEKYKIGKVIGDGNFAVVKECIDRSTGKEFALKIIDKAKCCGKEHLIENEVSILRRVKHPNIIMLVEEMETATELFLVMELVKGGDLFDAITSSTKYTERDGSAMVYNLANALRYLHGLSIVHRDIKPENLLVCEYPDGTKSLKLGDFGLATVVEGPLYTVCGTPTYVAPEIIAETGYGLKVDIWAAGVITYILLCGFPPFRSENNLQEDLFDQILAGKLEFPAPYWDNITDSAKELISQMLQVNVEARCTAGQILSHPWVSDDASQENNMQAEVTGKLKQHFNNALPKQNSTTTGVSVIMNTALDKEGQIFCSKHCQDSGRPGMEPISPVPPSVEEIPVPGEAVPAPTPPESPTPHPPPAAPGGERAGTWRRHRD
Conditions: DCAMKL2; 1 uM; read-out: Percent Control (%). The method, boiled down: as §1

The target in test [8] is T8, scanMAX Kinase assay panel (Plasmodium falciparum, UniProt P62344).
T8 construct: purchased DiscoverX
T8 sequence (P62344 whole entry): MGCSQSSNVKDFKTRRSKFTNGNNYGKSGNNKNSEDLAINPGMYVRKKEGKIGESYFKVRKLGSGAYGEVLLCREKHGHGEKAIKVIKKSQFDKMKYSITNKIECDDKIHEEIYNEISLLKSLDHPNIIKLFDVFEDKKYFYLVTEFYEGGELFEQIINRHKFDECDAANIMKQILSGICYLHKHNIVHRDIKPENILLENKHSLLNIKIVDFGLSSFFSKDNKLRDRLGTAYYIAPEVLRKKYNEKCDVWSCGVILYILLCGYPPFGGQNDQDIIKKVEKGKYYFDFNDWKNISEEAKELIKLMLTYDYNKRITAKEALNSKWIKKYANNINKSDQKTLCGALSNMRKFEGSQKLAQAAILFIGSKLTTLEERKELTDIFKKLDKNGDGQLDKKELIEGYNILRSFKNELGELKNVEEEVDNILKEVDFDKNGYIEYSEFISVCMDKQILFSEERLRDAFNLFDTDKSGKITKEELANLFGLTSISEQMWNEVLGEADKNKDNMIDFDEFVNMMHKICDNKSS
Conditions: PFCDPK1 (P. falciparum); 1 uM; read-out: Percent Control (%). The method, boiled down:
as §1

T4 sequence (Q00532 whole entry): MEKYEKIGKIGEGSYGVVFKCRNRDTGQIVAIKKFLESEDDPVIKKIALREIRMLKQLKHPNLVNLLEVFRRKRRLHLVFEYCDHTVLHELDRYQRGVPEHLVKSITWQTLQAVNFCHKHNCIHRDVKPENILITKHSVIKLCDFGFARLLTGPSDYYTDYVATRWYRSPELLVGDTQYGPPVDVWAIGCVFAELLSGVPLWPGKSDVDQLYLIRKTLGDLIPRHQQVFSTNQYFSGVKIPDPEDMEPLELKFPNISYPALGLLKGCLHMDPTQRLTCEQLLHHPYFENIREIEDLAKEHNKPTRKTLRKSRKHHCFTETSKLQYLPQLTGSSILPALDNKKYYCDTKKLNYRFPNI

With `Cc1ccc(C(=O)Nc2ccc(CN3CCN(C)CC3)c(C(F)(F)F)c2)cc1C#Cc1cnc2c(Nc3cnn(C)c3)cccn12` [Example 1, 4-methyl-3-((8-((1-methyl-1H-pyrazol-4-yl)amino)imidazo[1,2-a]pyridin-3-yl)ethynyl)-N-(4-((4-methylpiperazin-1-yl)methyl)-3-(trifluoromethyl)phenyl)benzamide], the remaining binding at 1 µM amounted to 0% in test [1]; 1% in test [2]; 79% in test [3]; 25% in test [4]; 75% in test [5]; 2% in test [6]. The remaining binding at 1 µM was 91% in test [7] and 1% in test [8].

As to `Cc1cn(-c2cc(NC(=O)c3ccc(C)c(C#Cc4cnc5c(Nc6cnn(C)c6)cccn45)c3)cc(C(F)(F)F)c2)cn1` [Example 12, 4-methyl-N-(3-(4-methyl-1H-imidazol-1-yl)-5-(trifluoromethyl)phenyl)-3-((8-((1-methyl-1H-pyrazol-4-yl)amino)imidazo[1,2-a]pyridin-3-yl)ethynyl)benzamide], the remaining binding at 1 µM turned out to be 47% in test [1]; 22% in test [2]; 85% in test [3]; 60% in test [4]; 90% in test [5]; 2% in test [6]. In addition, the figures for the remaining binding at 1 µM in test [7] and in test [8] were 78% and 55%, respectively.

As to `Cc1ccc(NC(=O)C2(C(=O)Nc3ccc(F)cc3)CC2)cc1C#Cc1cnc2c(Nc3cnn(C(C)C)c3)cccn12` [Example 78], the remaining binding at 1 µM stood at 84% in test [1]; 92% in test [2]; 96% in test [3]; 83% in test [4]; 100% in test [5]; 71% in test [6]. Besides, the remaining binding at 1 µM in test [7] stood at 100%; in test [8], 97%.
